Measured values: patent US12433876B2, “Septin inhibitors for treatment of cancers” (UNIVERSITY OF ROCHESTER, priority 2019, dated 2025)

Legend:
[1] = tested on: JIMT-1 breast cancer cells; test: RNA-Seq whole transcriptome analysis, JIMT-1; assay type: cell-based, human; settings: 10 nM Afatinib, 1 μM UR214-9
JIMT-1 cells = test: Cell cycle analysis (PI, flow cytometry), JIMT-1; assay type: cell-based; settings: JIMT-1, 3 μM
Method: For cell cycle analysis, BXPC-3 and PANC-1 and JIMT-1 cells (100,000/well) were seeded overnight in a 6 well dishes and allowed to adhere overnight. Media was replaced with fresh complete medium supplemented with DMSO or UR214-9 (100 nM and 3 μM) and cells were incubated for 72 hours. The media containing the drugs was removed and cells were washed twice with PBS and trypsinized gently. The cells were collected in 15 mL tubes, complete DMEM media was added to block trypsin and cells were centrifuged. The supernatants were removed and cells were gently treated with 70% cold-EtOH for 30 minutes. The fixed cells were centrifuged and the pellets obtained were collected in flow cytometry tubes and stained with preformulated PI/RNase solution (Cell Signaling Technology, catalog number: 4087s) for 30 minutes. The PI content was analyzed using a flow cytometer. Data was processed using Flowjo software.

[2] = tested on: human pancreatic cancer cells (BXPC-3 and PANC-1); test: MTS cell viability, pancreatic cancer cells; assay type: cell-based
Method: Cell Lines, Cell Culture, and Reagents. PANC-1, BXPC-3 and CAPAN-1, SKOV-3, MCF7, MDA-MD-231 cells were obtained from ATCC and maintained in DMEM, RPMI-1640 and IMDM supplemented with 10% fetal calf serum penicillin (100 units/mL), and streptomycin (100 μg/mL) at 37° C. with 5% CO2 in a humidified incubator. JIMT-1 cells were purchased from AddexBio Inc, USA (catalog number: C0006005) and maintained in 10% FBS and antibiotic supplemented DMEM. […] The reaction was monitored using thin-layer chromatography plates with DCM-MeOH or pure ethyl acetate as eluent. Spots were monitored in a UV chamber. […] ICM scores for each compound and their poses were calculated and compared with FCF. […] Cell viability of PANC-1, BXPC-3 and CAPAN-1 pancreatic cancer cells treated with UR214-9 was measured using the Cell Titre96R Aqueous One Solution Cell Proliferation Assay (Promega Corp., catalog number: G3580) following the procedure published earlier. […] The cells were analyzed by a 305 flow cytometer and relative live and dead cell population was calculated by inputting equal number of cells in both vehicle and control group.

Structure (SMILES): O=C(Nc1cc(Cl)nc(Cl)c1)Nc1cccc(SC(F)(F)F)c1F [UR214-9]
- dysregulated genes, down [1]: 4
- dysregulated genes, up [1]: 7
- cell cycle distribution (JIMT-1 cells): G1 phase arrest
- viability ([2]; BXPC-3 and PANC-1, 72 hours of treatment): reduced the viability
- growth (MTS assay), dose dependently ([2]; BXPC-3 and PANC-1, by 48th hour of drug exposure): reduced the growth
